Biological target: S6MTHFR (Sphingobium sp. SYK-6, UniProt G2IQS8)
Test: X-ray crystal structure of CH3-THF complex, […] Å
Type: binding
Details: FAD bound as purified; pH 4.5

Sequence of S6MTHFR (G2IQS8 2-288): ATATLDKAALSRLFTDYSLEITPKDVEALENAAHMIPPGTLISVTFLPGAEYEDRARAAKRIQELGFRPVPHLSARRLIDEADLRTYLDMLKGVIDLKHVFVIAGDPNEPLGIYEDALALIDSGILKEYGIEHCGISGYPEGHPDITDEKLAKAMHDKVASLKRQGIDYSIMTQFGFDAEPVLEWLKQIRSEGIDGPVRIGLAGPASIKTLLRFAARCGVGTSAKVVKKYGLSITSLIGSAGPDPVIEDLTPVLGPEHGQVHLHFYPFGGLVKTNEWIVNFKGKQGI

With `Cc1cc2nc3c(=O)[nH]c(=O)nc-3n(C[C@H](O)[C@H](O)[C@H](O)COP(=O)(O)OP(=O)(O)OC[C@H]3O[C@@H](n4cnc5c(N)ncnc54)[C@H](O)[C@@H]3O)c2cc1C` [FAD] the “X-ray crystal structure of CH3-THF complex, 1.85 Å” value was “FAD and the experimentally observed part of the CH3-THF molecule are shown by stick models”.

Reference: PMC11868366 (Communications Biology, 2025)
